The results in this text go back to ChEMBL document CHEMBL1201862, “PubChem BioAssay data set” (2004).

Among the test systems are UACC-62; TK-10; SK-OV-3; RPMI-8226; Hs-578T; UO-31; 786-0; SF-268; KM12; NCI-H23; HOP-92; HCC 2998; NCI/ADR-RES; SF-295; SK-MEL-28; PC-3; NCI-H522; OVCAR-3; HT-29.
Assay in all cases: NCI-60 cell line screen, 48 h

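Dose response: 5 concentrations. Exposure: 48 h. Format: 96-well plates. Endpoint: linear interpolation; highest concentration if not reached. Abbreviation: GI50, concentration required for 50% inhibition of growth.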 The source made the active and inactive calls. Rule as the data show it: active = GI50 up to about 1.1 µM and inactive = higher. Some results are limits rather than exact numbers.

In the case of `COc1ccc2oc(C(=O)N3CC(CCl)c4ccc([N+](=O)[O-])cc43)cc2c1` (configuration not stated), the GI50 was 41.9 µM (inactive) in the experiment with UACC-62; 33.2 µM (inactive) with TK-10; 13.2 µM (inactive) in the experiment on SK-OV-3; > 100 µM (inactive) in the experiment with RPMI-8226; 9.12 µM (inactive) in the experiment on Hs-578T; 4.45 µM (inactive) with UO-31. In addition, the GI50 with 786-0 was 16.2 µM (inactive); in the experiment with SF-268, 13.3 µM (inactive); in the experiment with KM12, 0.381 µM (active); in the experiment on NCI-H23, 73.8 µM (inactive); in the experiment with HOP-92 it was 26.1 µM (inactive); in the experiment with HCC 2998, > 100 µM (inactive). Further, the GI50 with NCI/ADR-RES was 17.9 µM (inactive); in the experiment on SF-295, 13 µM (inactive); in the experiment with SK-MEL-28, > 100 µM (inactive); in the experiment on PC-3, 20.7 µM (inactive).

For `Cc1cccc2c1C(=O)/C(=C/c1ccccc1C(=O)O)C2`, the GI50 in the experiment on NCI-H522 was > 100 µM (inactive); in the experiment on UACC-62, > 100 µM (inactive); with TK-10 it was > 100 µM (inactive); in the experiment with OVCAR-3, > 100 µM (inactive); in the experiment with RPMI-8226 it was 32.8 µM (inactive); in the experiment on Hs-578T it was > 100 µM (inactive). Besides, the GI50 in the experiment on UO-31, in the experiment on 786-0, in the experiment on SF-268, with KM12, in the experiment on HT-29 and with NCI-H23 was > 100 µM (inactive) in each case. Besides, the GI50 in the experiment on HOP-92, in the experiment with HCC 2998, in the experiment on NCI/ADR-RES, in the experiment on SF-295, in the experiment with SK-MEL-28 and in the experiment with PC-3 was > 100 µM (inactive) in each case.

As to `CCOP(=O)(OCC)/C(C#N)=C/c1cnc(-c2ccccc2)[nH]1`, the GI50 in the experiment with NCI-H522, with UACC-62, in the experiment on OVCAR-3, in the experiment on SK-OV-3, in the experiment with RPMI-8226 and in the experiment on Hs-578T was > 100 µM (inactive) in each case. Besides, the GI50 in the experiment with UO-31 is > 100 µM (inactive); in the experiment with 786-0, > 100 µM (inactive); with SF-268, > 100 µM (inactive); in the experiment with KM12 it was > 100 µM (inactive); in the experiment on HT-29, > 100 µM (inactive); with NCI-H23, 79.6 µM (inactive). The GI50 with HOP-92, with HCC 2998, in the experiment with NCI/ADR-RES, in the experiment with SF-295, with SK-MEL-28 and in the experiment with PC-3 was > 100 µM (inactive) throughout.

In the case of `Cc1ccc2c(c1)[nH]c(=S)n2/C=C1\C(=O)Oc2ccccc2C1=O`, the GI50 with NCI-H522 was 38.7 µM (inactive); in the experiment with UACC-62, 13.1 µM (inactive); in the experiment on TK-10 it was > 100 µM (inactive); in the experiment on OVCAR-3 it was 24.4 µM (inactive); with RPMI-8226, 65.2 µM (inactive); with Hs-578T it was 25.5 µM (inactive). In addition, the GI50 with UO-31 was 30.2 µM (inactive); in the experiment with 786-0, 42.8 µM (inactive); with SF-268, 55.7 µM (inactive); in the experiment with KM12, 84.5 µM (inactive); in the experiment on HT-29, 57.5 µM (inactive); with NCI-H23, 70.8 µM (inactive). In addition, the GI50 is 39 µM (inactive) in the experiment with HOP-92; > 100 µM (inactive) with HCC 2998; 56.2 µM (inactive) in the experiment with NCI/ADR-RES; > 100 µM (inactive) with SF-295; 47.3 µM (inactive) with SK-MEL-28; 76.7 µM (inactive) in the experiment with PC-3.

For `N#C[BH2-][n+]1ccc(C(=O)NNCc2ccccc2)cc1`, the GI50 in the experiment on NCI-H522, in the experiment with UACC-62, with TK-10, with OVCAR-3, in the experiment on RPMI-8226 and in the experiment on Hs-578T was > 100 µM (inactive) each time. For the same compound, the GI50 in the experiment with UO-31, with 786-0, in the experiment on SF-268, with KM12, in the experiment with HOP-92 and in the experiment with HCC 2998 was > 100 µM (inactive) in each case. Besides, the GI50 with NCI/ADR-RES, with SF-295, with SK-MEL-28 and in the experiment on PC-3 was > 100 µM (inactive) each time.

For the compound `Cc1c(C)c2c(c(N)c1C#N)C(=O)N(Nc1ccccc1)C2=O`, the GI50 was 29.2 µM (inactive) in the experiment on NCI-H522; 51.4 µM (inactive) with UACC-62; 28.1 µM (inactive) in the experiment on TK-10; 52.2 µM (inactive) with OVCAR-3; > 100 µM (inactive) with RPMI-8226; 46.7 µM (inactive) in the experiment on Hs-578T. The GI50 was 78.5 µM (inactive) with UO-31; 51.9 µM (inactive) in the experiment with 786-0; 40.8 µM (inactive) in the experiment on SF-268; 36.1 µM (inactive) in the experiment on KM12; 28.5 µM (inactive) in the experiment on HOP-92; > 100 µM (inactive) in the experiment on HCC 2998. Moreover, the GI50 is 52.4 µM (inactive) in the experiment with NCI/ADR-RES, 34.1 µM (inactive) with SF-295, > 100 µM (inactive) with SK-MEL-28 and 57.3 µM (inactive) in the experiment with PC-3.

Take `C(=N\c1ccc(-c2nc3ccccc3[nH]2)cc1)/c1ccco1`: the GI50 was 53.1 µM (inactive) in the experiment with NCI-H522; 89.7 µM (inactive) with UACC-62; > 100 µM (inactive) with TK-10; 91.4 µM (inactive) in the experiment with OVCAR-3; 34.8 µM (inactive) with RPMI-8226; > 100 µM (inactive) in the experiment on Hs-578T. For the same compound, the GI50 in the experiment on UO-31 was 75.7 µM (inactive); in the experiment on 786-0, > 100 µM (inactive); with SF-268, > 100 µM (inactive); in the experiment with KM12, 48.6 µM (inactive); in the experiment with HT-29 it was > 100 µM (inactive); in the experiment with NCI-H23, 82.6 µM (inactive). In addition, the GI50 in the experiment on HOP-92 is 44.1 µM (inactive); with HCC 2998 it was 76.4 µM (inactive); in the experiment with NCI/ADR-RES, 84.9 µM (inactive); with SK-MEL-28 it was > 100 µM (inactive); in the experiment on PC-3, 33.6 µM (inactive).

In the case of `COC(=O)C(C)Sc1nc2cc(Cl)ccc2s1` (configuration not stated), the GI50 with NCI-H522, in the experiment with UACC-62, with OVCAR-3, in the experiment on SK-OV-3, with RPMI-8226 and in the experiment with Hs-578T was > 100 µM (inactive) throughout. The GI50 in the experiment with UO-31, with 786-0, with SF-268, in the experiment with KM12, with HT-29 and in the experiment with NCI-H23 was > 100 µM (inactive) in each case. Further, the GI50 with HOP-92, with HCC 2998, in the experiment with NCI/ADR-RES, with SF-295, in the experiment on SK-MEL-28 and in the experiment with PC-3 was > 100 µM (inactive) throughout.
